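Five compound concentrations were applied to cells in 96-well plates for 48 hours; endpoints were derived by simple linear interpolation of the resulting dose-response curve. Abbreviation: GI50, concentration required for 50% inhibition of growth.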 The source made the active and inactive calls. No stated cut-off is given here; in the data, active = GI50 up to about 1.1 µM and inactive = higher.
How the values were obtained:
Assay in all cases: NCI tumour cell line growth inhibition, 48 h
MDA-MB-435 = test system: MDA-MB-435
OVCAR-3 = test system: OVCAR-3
SF-539 = test system: SF-539
SR = test system: SR
CAKI-1 = test system: CAKI-1
SK-MEL-5 = test system: SK-MEL-5
HCT-116 = test system: HCT-116
A549 = test system: A549
Malme-3M = test system: Malme-3M
EKVX = test system: EKVX
SNB-75 = test system: SNB-75
MOLT-4 = test system: MOLT-4
SF-295 = test system: SF-295
UACC-257 = test system: UACC-257
Hs-578T = test system: Hs-578T
HCT-15 = test system: HCT-15
CCRF-CEM = test system: CCRF-CEM
DLD-1 = test system: DLD-1
DMS-114 = test system: DMS-114

SMILES	GI50 (MDA-MB-435)	GI50 (OVCAR-3)	GI50 (SF-539)	GI50 (SR)	GI50 (CAKI-1)	GI50 (SK-MEL-5)	GI50 (HCT-116)	GI50 (A549)	GI50 (Malme-3M)	GI50 (EKVX)	GI50 (SNB-75)	GI50 (MOLT-4)	GI50 (SF-295)	GI50 (UACC-257)	GI50 (Hs-578T)	GI50 (HCT-15)	GI50 (CCRF-CEM)	GI50 (DLD-1)	GI50 (DMS-114)
O=c1c2cc([N+](=O)[O-])ccc2n2n1CCCC2	> 100 µM (inactive)	> 100 µM (inactive)	> 100 µM (inactive)	> 100 µM (inactive)	> 100 µM (inactive)	> 100 µM (inactive)	> 100 µM (inactive)	> 100 µM (inactive)	> 100 µM (inactive)	> 100 µM (inactive)	> 100 µM (inactive)	> 100 µM (inactive)	> 100 µM (inactive)	> 100 µM (inactive)	> 100 µM (inactive)	> 100 µM	> 100 µM (inactive)		
Brc1ccc(-c2cn3ccncc3n2)cc1	> 100 µM (inactive)	> 100 µM (inactive)	> 100 µM (inactive)	> 100 µM (inactive)	> 100 µM (inactive)	> 100 µM (inactive)	> 100 µM (inactive)	> 100 µM (inactive)	> 100 µM (inactive)	63.8 µM (inactive)	> 100 µM (inactive)	60.3 µM (inactive)	> 100 µM (inactive)	14.9 µM (inactive)	> 100 µM (inactive)	> 100 µM	> 100 µM (inactive)		
O=[N+]([O-])c1cccc2nc3ccccc3c(NCCCN3CCCCC3)c12	0.0106 µM (active)	< 0.0126 µM (active)	0.0163 µM (active)	< 0.01 µM (active)	0.0312 µM (active)	< 0.011 µM (active)	< 0.01 µM (active)	< 0.01 µM (active)	0.0164 µM (active)	< 0.01 µM (active)	0.0205 µM (active)	< 0.01 µM (active)	0.0146 µM (active)	0.0219 µM (active)	0.0385 µM (active)	0.0158 µM	0.024 µM (active)		
BrC1(c2ccccc2)C[n+]2c(-c3ccccc3)cc(-c3ccccc3)cc2-c2ccccc21 (stereo unspecified)	0.205 µM (active)	0.0489 µM (active)	0.764 µM (active)	0.611 µM (active)	3.66 µM (inactive)	0.197 µM (active)	0.365 µM (active)	0.929 µM (active)	0.441 µM (active)	0.457 µM (active)	0.236 µM (active)	0.631 µM (active)	1.03 µM (active)	0.233 µM (active)	0.231 µM (active)	2.9 µM	0.52 µM (active)		
Cn1cc(S(=O)(=O)NC(=O)Nc2ccc(Cl)cc2)c(=O)c2ccc(Cl)cc21	48.5 µM (inactive)	> 100 µM (inactive)	> 100 µM (inactive)	43.8 µM (inactive)	> 100 µM (inactive)	> 100 µM (inactive)	84.1 µM (inactive)	> 100 µM (inactive)	> 100 µM (inactive)	> 100 µM (inactive)	> 100 µM (inactive)	85.5 µM (inactive)	> 100 µM (inactive)	> 100 µM (inactive)	72.1 µM (inactive)	25.7 µM	92.9 µM (inactive)		
O=C1OCCC1(Cc1ccc(Cl)cc1)Cc1ccc(Cl)cc1		> 100 µM (inactive)		> 100 µM (inactive)	> 100 µM (inactive)		> 100 µM (inactive)	> 100 µM (inactive)	> 100 µM (inactive)	> 100 µM (inactive)	21.6 µM (inactive)	> 100 µM (inactive)	34 µM (inactive)	> 100 µM (inactive)			> 100 µM (inactive)	> 100 µM (inactive)	
COC(=O)C12C(=O)O[C@H](C)C1(O)C(C)C(=O)N2C (stereo partly specified)		> 100 µM (inactive)	> 100 µM (inactive)	> 100 µM (inactive)	> 100 µM (inactive)	> 100 µM (inactive)	> 100 µM (inactive)		> 100 µM (inactive)	> 100 µM (inactive)		> 100 µM (inactive)	> 100 µM (inactive)			> 100 µM		> 100 µM (inactive)	> 100 µM (inactive)
O=C1c2ccccc2C(=O)N1n1c(Cc2ccccc2)n[nH]c1=O	> 100 µM (inactive)	> 100 µM (inactive)	> 100 µM (inactive)	> 100 µM (inactive)	> 100 µM (inactive)	> 100 µM (inactive)	> 100 µM (inactive)	> 100 µM (inactive)	> 100 µM (inactive)	> 100 µM (inactive)	> 100 µM (inactive)	> 100 µM (inactive)	> 100 µM (inactive)	> 100 µM (inactive)	> 100 µM (inactive)	> 100 µM	> 100 µM (inactive)		
Cc1c(-c2ccccc2)c(-c2ccc(OCCN(C)C)cc2)n2ccccc12	3.79 µM (inactive)	12 µM (inactive)	10.5 µM (inactive)	2.43 µM (inactive)	11.2 µM (inactive)	1.87 µM (inactive)	5.61 µM (inactive)	13.9 µM (inactive)	4.38 µM (inactive)	15.3 µM (inactive)	8.38 µM (inactive)	3.48 µM (inactive)	12.2 µM (inactive)	2.04 µM (inactive)	5.41 µM (inactive)	2.55 µM	3.72 µM (inactive)		
COC1=C(OC)C(=O)C(Sc2ccc3ccccc3c2)=CC1=O	4.25 µM (inactive)	4.63 µM (inactive)	13.5 µM (inactive)	2.09 µM (inactive)	14.7 µM (inactive)	3.1 µM (inactive)	4.58 µM (inactive)	12 µM (inactive)	11.9 µM (inactive)	11.9 µM (inactive)	12.8 µM (inactive)	1.68 µM (inactive)	9.42 µM (inactive)	7.69 µM (inactive)	14.9 µM (inactive)	9.68 µM	1.29 µM (inactive)		
CCN(CC)CCN(C)c1ccc(CO)c2c1c(=O)c1ccccc1[s+]2[O-] (stereo unspecified)	2 µM (inactive)	1.95 µM (inactive)	1.82 µM (inactive)	2.28 µM (inactive)	13.2 µM (inactive)	2.45 µM (inactive)	1.88 µM (inactive)	11.3 µM (inactive)	11.9 µM (inactive)	5.96 µM (inactive)	14.8 µM (inactive)	2.25 µM (inactive)	13.6 µM (inactive)	2 µM (inactive)	12 µM (inactive)	4.2 µM	3.78 µM (inactive)		
CCOC(=O)c1cnccc1CC1(C#N)c2ccccc2C=CN1C(=O)c1ccccc1 (stereo unspecified)	35.6 µM (inactive)	31.6 µM (inactive)	30.1 µM (inactive)	26.8 µM (inactive)	27.2 µM (inactive)	15.3 µM (inactive)	29.2 µM (inactive)	34.4 µM (inactive)	6.17 µM (inactive)	36.5 µM (inactive)	12.9 µM (inactive)	15.5 µM (inactive)	53.6 µM (inactive)	34.7 µM (inactive)	13 µM (inactive)	31 µM	40.3 µM (inactive)		
CCOC1CN=C(Nc2cccc3ccccc23)S1 (stereo unspecified)	> 10 µM (inactive)	> 10 µM (inactive)	> 10 µM (inactive)	> 10 µM (inactive)	> 10 µM (inactive)	> 10 µM (inactive)	> 10 µM (inactive)	> 10 µM (inactive)	> 10 µM (inactive)	> 10 µM (inactive)	> 10 µM (inactive)	> 10 µM (inactive)	> 10 µM (inactive)	> 10 µM (inactive)	> 10 µM (inactive)	> 10 µM	> 10 µM (inactive)		
C/C(=N\NC(=S)N1CCCCC1)c1nc2cccnc2[nH]1	15.1 µM (inactive)	5.15 µM (inactive)	6.14 µM (inactive)	3.64 µM (inactive)	13.2 µM (inactive)	4.03 µM (inactive)	4.19 µM (inactive)	6.7 µM (inactive)	27.9 µM (inactive)	5.3 µM (inactive)	38.4 µM (inactive)	3.41 µM (inactive)	8.51 µM (inactive)	8 µM (inactive)	38.8 µM (inactive)	5.81 µM	2.79 µM (inactive)		
CC(=O)N1CCN(C23OC4(N5CCN(C(C)=O)CC5)C5C6CC(C7C6C4C72)C53)CC1 (stereo unspecified)	> 100 µM (inactive)	> 100 µM (inactive)	> 100 µM (inactive)	> 100 µM (inactive)	> 100 µM (inactive)	> 100 µM (inactive)	> 100 µM (inactive)	> 100 µM (inactive)	> 100 µM (inactive)	> 100 µM (inactive)	> 100 µM (inactive)	> 100 µM (inactive)	> 100 µM (inactive)	> 100 µM (inactive)	> 100 µM (inactive)	> 100 µM	> 100 µM (inactive)		
CCN(CC)C1CCC(C2c3cc4c(cc3OC(N3CCOCC3)C2C)OCO4)CC1 (stereo unspecified)	6.81 µM (inactive)	14.7 µM (inactive)	22.3 µM (inactive)	23.4 µM (inactive)	> 100 µM (inactive)	9.31 µM (inactive)	32.3 µM (inactive)	27.5 µM (inactive)	21.6 µM (inactive)	22.8 µM (inactive)	61.8 µM (inactive)	10.1 µM (inactive)	9.46 µM (inactive)	18.4 µM (inactive)	28.7 µM (inactive)	12.1 µM	27.2 µM (inactive)		
CCOC1NC(=O)Oc2ccccc21 (stereo unspecified)	> 100 µM (inactive)	68.2 µM (inactive)	> 100 µM (inactive)	> 100 µM (inactive)	> 100 µM (inactive)	> 100 µM (inactive)	> 100 µM (inactive)	> 100 µM (inactive)	> 100 µM (inactive)	> 100 µM (inactive)	> 100 µM (inactive)	> 100 µM (inactive)	> 100 µM (inactive)	> 100 µM (inactive)	> 100 µM (inactive)	> 100 µM	> 100 µM (inactive)		

Source: ChEMBL document CHEMBL1201862, “PubChem BioAssay data set” (2004)
